Compound in assay [1]: NC(=O)CCCCC1CCSS1 [lipoamide]
Description: thermal stability z-score vs DMSO; higher = more thermally stabilized by treatment. The following applies: HeLa, lipoamide concentration 100 µM. The method, then: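 Cellular thermal proteome profiling in HeLa cells. Cells were treated with 100 µM lipoamide for 1 h, with or without 1 mM arsenate for a further 1 h, then heated to ten temperatures (37-66.3 °C), and soluble protein was quantified by TMT mass spectrometry relative to 0.1% DMSO controls. The thermal stability score (sum of log2 fold changes minus the abundance score) was transformed to a z-score; mean of n = 3 experiments.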

Compound in assay [2]: O=[As]([O-])(O)O.[K+] [potassium arsenate]
Described as above. The note with it: HeLa; arsenate concentration 1 mM. The protocol:
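Cellular thermal proteome profiling in HeLa cells treated with 1 mM arsenate for 1 h (DMSO pretreatment), heated to ten temperatures (37-66.3 °C). Soluble protein was quantified by TMT mass spectrometry relative to DMSO controls; the thermal stability score was transformed to a z-score; mean of n = 3 experiments.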

Where [3] appears, read: arsenate co-treatment: 1 mM arsenate 1 h.
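Note: each temperature applied for 3 min, abundance score taken as mean log2 fold change at the two lowest temperatures, z-score obtained by mean subtraction and division by SD.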

Sequence of UniProt Q13042 (Q13042 whole entry): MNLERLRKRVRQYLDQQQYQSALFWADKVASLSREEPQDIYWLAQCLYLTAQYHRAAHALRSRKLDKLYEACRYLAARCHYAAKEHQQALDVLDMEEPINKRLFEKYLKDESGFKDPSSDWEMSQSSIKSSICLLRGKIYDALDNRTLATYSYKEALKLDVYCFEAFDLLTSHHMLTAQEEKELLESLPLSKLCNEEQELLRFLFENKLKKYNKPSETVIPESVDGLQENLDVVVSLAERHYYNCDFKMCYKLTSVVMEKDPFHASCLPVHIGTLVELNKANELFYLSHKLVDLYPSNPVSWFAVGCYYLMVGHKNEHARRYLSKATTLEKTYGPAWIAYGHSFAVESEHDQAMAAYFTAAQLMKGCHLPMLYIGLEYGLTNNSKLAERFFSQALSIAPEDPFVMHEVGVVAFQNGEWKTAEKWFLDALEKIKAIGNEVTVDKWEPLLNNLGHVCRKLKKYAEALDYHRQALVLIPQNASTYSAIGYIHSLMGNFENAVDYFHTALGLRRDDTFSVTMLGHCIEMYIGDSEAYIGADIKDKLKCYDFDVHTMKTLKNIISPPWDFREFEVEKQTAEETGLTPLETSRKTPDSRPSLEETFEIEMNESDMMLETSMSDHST
Sequence of UniProt Q5SRE7 (Q5SRE7 whole entry): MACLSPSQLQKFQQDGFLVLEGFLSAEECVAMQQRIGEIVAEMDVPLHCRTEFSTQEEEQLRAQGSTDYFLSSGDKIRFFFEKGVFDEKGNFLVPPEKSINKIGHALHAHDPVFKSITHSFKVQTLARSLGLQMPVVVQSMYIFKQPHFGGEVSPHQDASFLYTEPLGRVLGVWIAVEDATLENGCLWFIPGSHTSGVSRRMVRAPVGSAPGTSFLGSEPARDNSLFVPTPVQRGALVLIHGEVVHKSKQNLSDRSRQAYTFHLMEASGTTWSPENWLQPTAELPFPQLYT
Sequence of UniProt P62877 (P62877 whole entry, looked up): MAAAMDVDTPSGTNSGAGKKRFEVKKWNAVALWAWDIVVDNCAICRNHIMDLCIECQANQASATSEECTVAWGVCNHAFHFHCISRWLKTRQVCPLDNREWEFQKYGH
Sequence of UniProt Q8IY67 (Q8IY67 whole entry): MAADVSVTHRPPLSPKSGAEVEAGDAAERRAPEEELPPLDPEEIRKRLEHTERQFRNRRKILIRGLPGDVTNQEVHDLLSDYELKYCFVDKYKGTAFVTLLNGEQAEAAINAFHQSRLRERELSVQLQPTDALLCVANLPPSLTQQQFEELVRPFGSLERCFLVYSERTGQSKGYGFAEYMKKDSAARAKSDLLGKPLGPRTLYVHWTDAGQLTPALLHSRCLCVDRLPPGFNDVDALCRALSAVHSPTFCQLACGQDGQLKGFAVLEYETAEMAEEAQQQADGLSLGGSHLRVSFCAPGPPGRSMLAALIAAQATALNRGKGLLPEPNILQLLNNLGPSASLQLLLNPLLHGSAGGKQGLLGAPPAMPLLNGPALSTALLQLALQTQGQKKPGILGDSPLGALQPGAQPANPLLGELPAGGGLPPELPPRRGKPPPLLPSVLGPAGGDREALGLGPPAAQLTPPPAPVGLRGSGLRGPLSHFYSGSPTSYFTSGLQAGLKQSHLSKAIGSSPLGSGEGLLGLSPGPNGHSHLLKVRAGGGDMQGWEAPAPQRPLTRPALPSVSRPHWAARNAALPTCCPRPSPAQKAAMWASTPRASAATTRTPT
Sequence of UniProt O14841 (O14841 whole entry): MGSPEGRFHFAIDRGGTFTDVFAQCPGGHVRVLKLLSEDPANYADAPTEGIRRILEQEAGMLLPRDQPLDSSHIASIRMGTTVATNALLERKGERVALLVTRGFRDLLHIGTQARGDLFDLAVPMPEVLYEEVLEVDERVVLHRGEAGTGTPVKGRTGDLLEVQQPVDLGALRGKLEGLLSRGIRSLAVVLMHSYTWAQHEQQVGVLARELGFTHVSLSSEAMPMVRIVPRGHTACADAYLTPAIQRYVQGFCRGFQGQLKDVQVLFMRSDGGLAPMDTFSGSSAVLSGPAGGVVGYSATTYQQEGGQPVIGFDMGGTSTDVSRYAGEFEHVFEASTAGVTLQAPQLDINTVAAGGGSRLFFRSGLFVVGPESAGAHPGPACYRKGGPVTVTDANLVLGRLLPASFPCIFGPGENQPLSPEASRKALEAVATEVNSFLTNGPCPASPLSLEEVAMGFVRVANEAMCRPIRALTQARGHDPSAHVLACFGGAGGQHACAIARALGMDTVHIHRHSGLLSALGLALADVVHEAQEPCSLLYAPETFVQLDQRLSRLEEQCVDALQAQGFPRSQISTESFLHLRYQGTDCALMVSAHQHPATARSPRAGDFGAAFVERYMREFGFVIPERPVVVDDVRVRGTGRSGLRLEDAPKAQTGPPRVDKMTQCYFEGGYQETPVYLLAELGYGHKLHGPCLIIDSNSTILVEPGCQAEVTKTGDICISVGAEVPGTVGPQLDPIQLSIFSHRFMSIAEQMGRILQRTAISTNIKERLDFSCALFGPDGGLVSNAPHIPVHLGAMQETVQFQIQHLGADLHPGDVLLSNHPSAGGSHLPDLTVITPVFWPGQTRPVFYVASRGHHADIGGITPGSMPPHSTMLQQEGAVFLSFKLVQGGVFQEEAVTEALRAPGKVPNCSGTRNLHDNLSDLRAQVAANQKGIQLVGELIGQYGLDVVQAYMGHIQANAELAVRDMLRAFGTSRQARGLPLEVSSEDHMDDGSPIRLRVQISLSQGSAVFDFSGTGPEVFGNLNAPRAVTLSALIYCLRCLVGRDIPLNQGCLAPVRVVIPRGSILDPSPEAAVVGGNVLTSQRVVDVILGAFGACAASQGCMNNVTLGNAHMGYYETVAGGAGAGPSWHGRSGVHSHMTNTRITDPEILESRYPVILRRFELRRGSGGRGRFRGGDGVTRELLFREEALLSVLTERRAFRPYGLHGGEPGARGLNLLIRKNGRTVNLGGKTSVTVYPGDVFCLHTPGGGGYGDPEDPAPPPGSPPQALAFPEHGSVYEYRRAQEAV
Sequence of UniProt Q92995 (Q92995 whole entry): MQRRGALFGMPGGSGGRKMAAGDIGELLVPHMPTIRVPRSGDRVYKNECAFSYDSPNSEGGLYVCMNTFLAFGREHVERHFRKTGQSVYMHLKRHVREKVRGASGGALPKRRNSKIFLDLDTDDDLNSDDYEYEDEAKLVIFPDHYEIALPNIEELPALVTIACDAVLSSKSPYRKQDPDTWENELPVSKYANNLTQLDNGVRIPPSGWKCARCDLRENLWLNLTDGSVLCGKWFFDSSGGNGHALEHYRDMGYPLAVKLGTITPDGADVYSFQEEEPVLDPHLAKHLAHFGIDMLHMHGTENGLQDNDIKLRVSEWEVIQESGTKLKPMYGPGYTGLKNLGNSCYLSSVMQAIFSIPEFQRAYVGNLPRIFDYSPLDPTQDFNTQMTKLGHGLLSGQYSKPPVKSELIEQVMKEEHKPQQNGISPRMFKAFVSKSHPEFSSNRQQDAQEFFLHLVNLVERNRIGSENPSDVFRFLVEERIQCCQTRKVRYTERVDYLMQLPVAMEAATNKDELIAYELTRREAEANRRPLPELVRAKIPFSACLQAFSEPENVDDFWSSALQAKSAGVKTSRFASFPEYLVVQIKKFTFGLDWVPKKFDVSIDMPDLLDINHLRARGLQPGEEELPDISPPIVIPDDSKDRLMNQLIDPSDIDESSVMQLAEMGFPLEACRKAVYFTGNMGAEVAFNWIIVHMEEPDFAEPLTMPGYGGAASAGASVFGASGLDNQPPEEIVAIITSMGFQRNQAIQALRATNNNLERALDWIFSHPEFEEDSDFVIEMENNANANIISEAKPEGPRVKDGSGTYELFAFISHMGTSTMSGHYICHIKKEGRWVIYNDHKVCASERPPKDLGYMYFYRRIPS
Sequence of UniProt Q96TA1 (Q96TA1 whole entry): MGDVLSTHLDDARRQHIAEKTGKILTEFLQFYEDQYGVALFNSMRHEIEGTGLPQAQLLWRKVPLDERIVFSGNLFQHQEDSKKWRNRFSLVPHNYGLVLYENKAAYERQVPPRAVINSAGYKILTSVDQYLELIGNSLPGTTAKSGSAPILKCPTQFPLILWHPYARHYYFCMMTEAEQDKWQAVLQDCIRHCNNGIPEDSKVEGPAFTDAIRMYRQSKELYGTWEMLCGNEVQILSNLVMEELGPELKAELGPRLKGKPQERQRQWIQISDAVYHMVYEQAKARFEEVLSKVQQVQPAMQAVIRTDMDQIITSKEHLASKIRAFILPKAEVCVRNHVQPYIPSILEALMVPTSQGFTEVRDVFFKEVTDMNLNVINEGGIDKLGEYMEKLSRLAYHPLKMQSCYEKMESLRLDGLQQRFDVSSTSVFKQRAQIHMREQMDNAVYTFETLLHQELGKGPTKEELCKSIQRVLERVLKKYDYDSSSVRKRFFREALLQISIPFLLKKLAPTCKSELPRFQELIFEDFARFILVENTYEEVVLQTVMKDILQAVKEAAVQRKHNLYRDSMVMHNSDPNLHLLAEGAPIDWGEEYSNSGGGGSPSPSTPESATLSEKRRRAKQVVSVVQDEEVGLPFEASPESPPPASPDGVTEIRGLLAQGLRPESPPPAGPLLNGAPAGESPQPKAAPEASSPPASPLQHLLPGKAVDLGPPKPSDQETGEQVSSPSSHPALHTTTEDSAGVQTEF
Sequence of UniProt Q9NTX5 (Q9NTX5 whole entry): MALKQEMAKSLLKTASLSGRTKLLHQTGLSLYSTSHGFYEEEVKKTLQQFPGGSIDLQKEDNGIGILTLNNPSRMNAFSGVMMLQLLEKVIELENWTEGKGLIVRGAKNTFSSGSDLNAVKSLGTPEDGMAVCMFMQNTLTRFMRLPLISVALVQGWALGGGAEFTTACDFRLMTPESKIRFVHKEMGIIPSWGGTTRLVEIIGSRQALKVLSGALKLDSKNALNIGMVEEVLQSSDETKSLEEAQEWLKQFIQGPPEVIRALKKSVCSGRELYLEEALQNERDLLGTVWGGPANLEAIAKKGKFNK
Sequence of UniProt Q9NRP4 (Q9NRP4 whole entry): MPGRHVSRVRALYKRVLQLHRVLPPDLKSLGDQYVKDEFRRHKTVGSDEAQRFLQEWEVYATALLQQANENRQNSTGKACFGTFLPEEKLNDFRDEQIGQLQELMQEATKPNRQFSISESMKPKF

For the target SUCLG1 (UniProt P53597), the thermal stability z-score was 0.0617 in assay [1] (setting [3]), 0.192 in assay [1] (arsenate co-treatment: none) and 0.206 in assay [2].
For LSM14A (UniProt Q8ND56), in that order: 0.62, -0.111 and 1.03.
For MAP2K1 (UniProt Q02750), in that order: -0.382, -0.187 and -0.118.
Take RAVER1 (UniProt Q8IY67): the values for the thermal stability z-score in assay [1] (setting [3]), in assay [1] (arsenate co-treatment: none) and in assay [2] were -0.141, -0.0728 and -0.162, respectively.
For SDHAF3 (UniProt Q9NRP4), in that order: -0.644, -0.535 and -0.145.
Consider PINX1 (UniProt Q96BK5), for which the values for the thermal stability z-score in assay [1] (setting [3]), in assay [1] (arsenate co-treatment: none) and in assay [2] were -0.717, -0.225 and -2.03, respectively.
As to USP13 (UniProt Q92995), the thermal stability z-score was 0.464 in assay [1] (setting [3]), 0.0604 in assay [1] (arsenate co-treatment: none) and -0.0408 in assay [2].
Turning to PHYHD1 (UniProt Q5SRE7), the thermal stability z-score was -0.0705 in assay [1] (setting [3]), 0.173 in assay [1] (arsenate co-treatment: none) and 0.196 in assay [2].
PUDP (UniProt Q08623): the thermal stability z-score in assay [1] (setting [3]) is 0.292; in assay [1] (arsenate co-treatment: none), -0.0843; in assay [2], -1.3.
The like results for TRMT5 (UniProt Q32P41) were, in that order, -0.124, 0.0028 and -0.112.
On to CDC16 (UniProt Q13042), for which the thermal stability z-score in assay [1] (setting [3]) was 0.159; in assay [1] (arsenate co-treatment: none) it was 0.0509; in assay [2] it was -0.551.
For P4HA2 (UniProt O15460), in that order: -3.73, -3.49 and 0.573.
For CYTH1 (UniProt Q15438), in that order: -0.178, 0.00951 and 0.0222.
For HOOK3 (UniProt Q86VS8), in that order: -0.807, -0.326 and -0.272.
MRPL24 (UniProt Q96A35): the thermal stability z-score is -0.411 in assay [1] (setting [3]), -0.311 in assay [1] (arsenate co-treatment: none) and -0.261 in assay [2].
In the case of PCK2 (UniProt Q16822), the thermal stability z-score is -0.107 in assay [1] (setting [3]), -0.0889 in assay [1] (arsenate co-treatment: none) and 0.352 in assay [2].
As to BCCIP (UniProt Q9P287), the thermal stability z-score in assay [1] (setting [3]) is 0.431; in assay [1] (arsenate co-treatment: none) it was -0.061; in assay [2], -0.181.
For MRPS26 (UniProt Q9BYN8), in that order: 0.609, 0.375 and 0.123.
Turning to CCT7 (UniProt Q99832), the thermal stability z-score in assay [1] (setting [3]) is -0.0924; in assay [1] (arsenate co-treatment: none) it was -0.191; in assay [2], -0.275.
The like results for ATRIP (UniProt Q8WXE1) were, in that order, 0.275, -0.148 and -0.137.
For PDE12 (UniProt Q6L8Q7), the thermal stability z-score is 0.274 in assay [1] (setting [3]), 0.272 in assay [1] (arsenate co-treatment: none) and -0.746 in assay [2].
For PLA2G4A (UniProt P47712), the thermal stability z-score in assay [1] (setting [3]) is -0.308; in assay [1] (arsenate co-treatment: none) it was -0.439; in assay [2], -0.294.
The like results for ECHDC1 (UniProt Q9NTX5) were, in that order, 0.928, 0.478 and 0.479.
The like results for SYNGR2 (UniProt O43760) were, in that order, 0.329, 0.548 and -0.0246.
For CAMSAP1 (UniProt Q5T5Y3), the values for the thermal stability z-score in assay [1] (setting [3]), in assay [1] (arsenate co-treatment: none) and in assay [2] were 0.0305, -0.371 and -0.293, respectively.
For NUMA1 (UniProt Q14980), in that order: 0.34, 0.207 and -1.48.
For HIRIP3 (UniProt Q9BW71), in that order: -0.148, 0.462 and 0.468.
The like results for RBX1 (UniProt P62877) were, in that order, -0.311, 0.0681 and 0.163.
On to PASK (UniProt Q96RG2), for which the thermal stability z-score in assay [1] (setting [3]) was 0.103; in assay [1] (arsenate co-treatment: none), 0.0323; in assay [2] it was -0.353.
Take CYP1B1 (UniProt Q16678): the thermal stability z-score in assay [1] (setting [3]) is 0.0413; in assay [1] (arsenate co-treatment: none) it was 0.0132; in assay [2] it was -0.0983.
For PPP3R1 (UniProt P63098), in that order: 0.0623, 0.412 and 0.32.
Consider MKNK2 (UniProt Q9HBH9), for which the values for the thermal stability z-score in assay [1] (setting [3]), in assay [1] (arsenate co-treatment: none) and in assay [2] were -0.569, 0.232 and 0.192, respectively.
Turning to OPLAH (UniProt O14841), the thermal stability z-score in assay [1] (setting [3]) is -0.0343; in assay [1] (arsenate co-treatment: none) it was 0.0614; in assay [2], -0.0405.
For PLEC (UniProt Q15149), the thermal stability z-score is 2.76 in assay [1] (setting [3]), 2.01 in assay [1] (arsenate co-treatment: none) and -3.9 in assay [2].
The like results for ZNF668 (UniProt Q96K58) were, in that order, 0.0589, -0.155 and -0.073.
The like results for UBE2R2 (UniProt Q712K3) were, in that order, 0.8, 0.536 and -0.279.
For UAP1L1 (UniProt Q3KQV9), in that order: 0.536, 0.556 and -0.793.
Turning to PODXL (UniProt O00592), the thermal stability z-score in assay [1] (setting [3]) is 0.0978; in assay [1] (arsenate co-treatment: none), 0.132; in assay [2], 0.395.
As for PPP6R3 (UniProt Q5H9R7), the thermal stability z-score in assay [1] (setting [3]) was 1.14; in assay [1] (arsenate co-treatment: none), 0.331; in assay [2], 0.262.
On to PPP1R7 (UniProt Q15435), for which the values for the thermal stability z-score in assay [1] (setting [3]), in assay [1] (arsenate co-treatment: none) and in assay [2] were 0.128, -0.182 and -0.488, respectively.
The like results for FAM129B (UniProt Q96TA1) were, in that order, 0.659, 0.517 and -1.01.
For UFSP2 (UniProt Q9NUQ7), in that order: -1.19, -0.381 and 0.0966.

The values above are taken from the supplement of paper PMC12463676, “Small-molecule dissolution of stress granules by redox modulation benefits ALS models” (Nature Chemical Biology, 2025).
